Broadly, the IC50 is the concentration that gives 50% inhibition.

Results on 2 compounds are retold here after PMC11820219 (Nutrients, 2025).

SMILES strings stand for the structures.

The target of series [1] is T1, α-glucosidase (Saccharomyces cerevisiae, UniProt P53341). To be noted: reported compound; cited from earlier work.
The subject of series [2] is streptozocin-induced diabetic mice. Details: method as in PMID 27687881. To be noted: cited from earlier work.
In series [3] the test system is Müller cells. To be noted: high glucose; cited from earlier work.
Series [4] deals with T1, α-glucosidase. The series is described as follows: FT-IR secondary structure of α-glucosidase (amide I curve fitting). To be noted: astragalin 100 µg/mL. The source says:
The secondary conformation of α-glucosidase (1 U/mL) with or without sample treatment were detected with a Fourier transform infrared spectrometer (FT-IR) (VERTEX 7.0, BRUKER Co., Ltd., Bremen, Germany), by fitting the infrared amide type I curve (1600–1700 cm^−1).

The test system of series [5] is HepG2 cells. The series is described as follows: HepG2 cell survival rate (CCK-8). To be noted: 0–200 µg/mL, 24 h. In kind it is cell-based, human. As to the method:
(§1) HepG2 cells at 10 to 40 generations were configured at a concentration of 4 × 10^5/mL. The cells suspension 100 µL was inoculated into a culture plate with DMEM (10 mL) containing glucose 4.5 g/L, 10% FBS, penicillin (1000 U/mL), and streptomycin ([…]), and cultivated in a 37 °C, 5% CO2 incubator.
Each sample was added to a 96-well plate with HepG2 cells and incubated in a 37 °C, 5% CO2 incubator for 24 h. After washing twice with PBS, the CCK-8 solution 100 µL was added, and incubated for another 4 h. The absorbance at 450 nm was measured using a Microplate reader (Bio TekGen5, BioTech Instruments, Co., Ltd., Winooski, VT, USA). The cells’ survival rates were calculated based on the formula as shown below:Cell survival rate (%) = A samples/A black control × 100%(5)

The target in series [6] is T1, α-glucosidase. Put plainly: fluorescence quenching of α-glucosidase (Stern–Volmer). In kind it is binding. The source says:
The mixture was scanned using fluorescence spectroscopy (SpectraMax i3x, Molecular Devices, LLC., San Jose, CA, USA). The excitation wavelength was set at 280 nm, and the emission wavelength at 300–500 nm, with excitation and emission slit widths of 5 nm. Then, the following Stern–Volmer dynamic collision quenching equations were applied to calculate the fluorescence quenching parameters, including the quenching constants (KSV), quenching rate constant (Kq), binding constant (Ka), and binding site number (n). The equations are described below:(2) F0/F=1+KSV[Q]=1+Kqτ0[Q] (3) lgF0−F/F=lgKa+nlg[Q]

For series [7], the system named is AMPK signaling pathway (p-AMPK, ACC, GLUT4). The series is described as follows: Western blotting of AMPK pathway proteins in high-glucose HepG2 cells. In kind it is cell-based, human. As to the method: Protein samples of 20 µg were separated by sodium dodecyl sulfate polyacrylamide gel electrophoresis in the Bio-Rad electrophoresis apparatus (Liuyi Biotechnology Co., Ltd., Beijing, China), and then transferred to polyvinylidene fluoride membranes. The electrophoretic proteins were sealed with 5% skimmed milk at room temperature for 1 h, and the membranes were incubated overnight with primary antibodies, including AMPK, phospho-AMPK (p-AMPK), acetyl CoA carboxylase (ACC, EC 6.4.1.2), and glucose transporter 4 (GLUT4) at 4 °C. After washing the membrane with phosphate-buffered saline tween-20, the membranes were incubated with secondary antibodies at room temperature for 1 h.
For orientation: In western blotting, separated proteins are transferred to a membrane and probed.

The subject of series [8] is high-glucose HepG2 cells. Put plainly: high-glucose (insulin-resistant) HepG2 model: glucose, TC, TG. In kind it is cell-based, human. To be noted: for hypoglycemic effect (glucose level) compared between concentrations: 80 µg/mL, superior to acarbose positive control 5 µg/mL. As to the method: as §1
When the cells were increased to about 80%, insulin at a concentration of 10^−5 mmol/L was treated for 24 h to induce the formation of insulin-resistant cells. […] After the treatment of 24 h with different samples, the glucose, TC, and TG content in the HepG2 cell supernatant was measured with glucose, TC, and TG assay kits.

Where [9] appears, read: different concentrations, high-glucose HepG2 cells.

T1 sequence (P53341 whole entry): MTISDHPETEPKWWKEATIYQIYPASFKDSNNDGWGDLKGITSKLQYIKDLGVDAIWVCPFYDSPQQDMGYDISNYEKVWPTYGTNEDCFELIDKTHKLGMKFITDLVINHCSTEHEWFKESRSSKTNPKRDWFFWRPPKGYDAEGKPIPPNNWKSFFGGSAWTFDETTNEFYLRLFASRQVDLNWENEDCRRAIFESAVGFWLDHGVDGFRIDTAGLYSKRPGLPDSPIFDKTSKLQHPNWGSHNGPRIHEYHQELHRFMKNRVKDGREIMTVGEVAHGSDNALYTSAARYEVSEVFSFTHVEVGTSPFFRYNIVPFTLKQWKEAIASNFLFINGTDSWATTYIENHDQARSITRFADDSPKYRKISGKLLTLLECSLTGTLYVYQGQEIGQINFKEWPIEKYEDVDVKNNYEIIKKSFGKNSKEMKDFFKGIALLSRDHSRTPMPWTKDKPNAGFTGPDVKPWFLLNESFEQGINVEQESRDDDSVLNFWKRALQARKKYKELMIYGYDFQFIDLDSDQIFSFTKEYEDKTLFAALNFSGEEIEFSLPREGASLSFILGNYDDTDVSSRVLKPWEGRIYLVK

Consider `COc1cc(OC)c2c(ccc3cc(OC)c(O)cc32)c1` [batatasin I], for which the IC50 in series [1] was 2550 µM.
Consider `O=c1c(O[C@@H]2O[C@H](CO)[C@@H](O)[C@H](O)[C@H]2O)c(-c2ccc(O)cc2)oc2cc(O)cc(O)c12` [astragalin, kaempferol-3-O-β-D-glucopyranoside], for which the “hypoglycemic effects in diabetic mice” value in series [2] was “improved the glucose tolerance and reduced the level of glucose”. The “vascular endothelial growth factor over-expression” value in series [3] is on record as “decreased the over-expression”. Further, in series [4] (without astragalin 11.72%), the “β-turn content of α-glucosidase with astragalin” value worked out at 19.30%. In series [4] (without astragalin 11.94%), the “β-sheet content of α-glucosidase with astragalin” value is listed as 4.71%. In addition, the “random coil content of α-glucosidase with astragalin” value in series [4] (without astragalin 21.08%) worked out at 38.79%. Further, the CCK-8 cell survival result in series [5] was “within the safe range”. The “KSV (quenching constant)” value is recorded as 9.093 ×10^3 Lmol^−1 in series [6] (298 K), 7.903 ×10^3 Lmol^−1 in series [6] (304 K) and 7.061 ×10^3 Lmol^−1 in series [6] (310 K). The “n (binding site number)” value is 1.238 in series [6] (298 K), 1.1905 in series [6] (304 K) and 0.8446 in series [6] (310 K). The “maximum fluorescence emission wavelength of α-glucosidase with astragalin” value in series [6] (free enzyme around 346 nm, excitation 280 nm, 298 K) amounted to 349 nm. In series [6] (under three temperature conditions, compared with maximum diffusion collision quenching constant), the Kq values entry is “higher than 2.0 × 10^10 Lmol^−1 s^−1”. In series [7] (20 µg/mL), the “GLUT4 protein expression level” value was “significantly increased”. Moreover, in series [7] (80 µg/mL), the “ACC protein expression level” value is “significantly down-regulated”. Also, the “p-AMPK protein expression level” value in series [7] (80 and 200 µg/mL) was “up-regulated”. Also, the “hypoglycemic effect (glucose level) compared between concentrations” value is listed as “the activity was the strongest” in series [8] and “best hypoglycemic effect” in series [8] (listed as Astragalin). The “glucose level in the cells” value in series [8] (20, 80, and 200 µg/mL, 24 h, insulin-induced high-glucose HepG2) is on record as “reduced the glucose level in the cells”. In addition, the TC level result in series [8] (setting [9]) was “reduced the levels of TC”. Besides, the TG level result in series [8] (setting [9]) is “reduced the levels of TC and TG”.
